The values that follow come from patent publication US20220363649A1, “ORGANIC COMPOUNDS” (Rutgers, The State University of New Jersey, priority 2018, published 2022).

The target of one data set is T1, S1R (Cavia porcellus, UniProt Q60492).
T1 construct: performed using Guinea pig whole brain according to the protocol previously reported; from tissue; host or cells: guinea pig whole brain membrane preparations
The data set can be described thus: S1R radiolabeled binding assay, guinea pig whole brain, [3H]-pentazocine. Particulars: guinea pig brain membranes (Compounds 1-9); read-out: S1R Ki. The protocol: Following 1 h incubation at 25° C., the binding assay was terminated by addition of cold buffer. The mixture was then filtered through Whatman GF/B filters and washed with cold buffer. Radioactivity was identified using the liquid scintillation counter.
Receptor binding data were analyzed by nonlinear regression of saturation and competition curves using the GraphPad Prism 7.0 software (GraphPad Software, La Jolla, Calif.).
(§1) Radiolabeled binding assays were conducted using two different species.

Data set [1] has as its system Sprague-Dawley rats. The data set can be described thus: Rat rotarod test (motor incoordination). Type of data set: in vivo. Particulars: i.p., male Sprague-Dawley rats. The protocol: Groups of 6 pre-selected male (Sprague-Dawley) rats weighing 180±20 g were included to the study motor coordination. Rats were trained on a rod at a continuous accelerating speed from 4 to 30 rpm/min during a time period of 4 minutes for at least 3 times before the study. Rats were randomly assigned to different groups with similar baseline.
Vehicle and test articles were administered by intraperitoneal (i.p.) injection. The rats were placed on the accelerating rotarod at 30, 60, 90 and 120 min post dosing, and the time (seconds) the rat remained on the rotarod was recorded.
Background: In the rotarod test animals must keep their balance on a rotating rod.

Data set [2] relates to Sprague-Dawley rats. The data set can be described thus: Rat formalin test. Format: in vivo. The settings on record: 20 and 40 mg/kg, i.p., hind paw licking time. On the procedure: One day after the rotarod test, vehicle and test articles were administered intraperitoneally again to groups of 6 Sprague-Dawley male rats weighting 180±20 g, 30 minutes prior to sub-plantar injection of formalin (0.05 ml, 2% solution). The hind paw licking time was recorded during a 0-35 min period at 5-min intervals after formalin challenge as a measure of analgesic activity of the test compound.

Data set [3] has as its system Sprague-Dawley rats. The data set can be described thus: Paclitaxel-induced cold hyperalgesia model in rats. Type of data set: in vivo, rat. Particulars: i.p. On the procedure: (§2) Male Sprague-Dawley rats weighing 240+20 grams were employed. Paclitaxel (brand name TAXOL®, 2 mg/kg) is injected intraperitoneally (i.p.) on days 1, 3, 5 and 7 with a total cumulative dose of 8 mg/kg. During the course of the study, the animals were housed individually under constant temperature, humidity and a 12-hour light-dark cycle.
(§3) Test articles, vehicle and gabapentin were administered intraperitoneally on Days 14 or 21.
Cold hyperalgesia was assessed by the […] and measured prior to Paclitaxel injections (Day 0) and test article administration (Days 13 or 20) and at 0.5 hour after dosing of vehicle or test articles on Days 14 or 21. The animals were randomized to each groups based on pre-dose cold hyperalgesia values (Days 13 or 20). Test rat was placed in 2.5 cm depth of a 0-2° C. ice water bath in a Plexiglas arena 32×32 cm×27 cm high. Withdrawal latency of the left paw was recorded and averaged twice for cold hyperalgesia assessment. A 20 sec cut time was employed.

For data set [4], the system named is Sprague-Dawley rats. The data set can be described thus: Paclitaxel-induced mechanical allodynia model in rats. Format: in vivo, rat. Particulars: i.p., von Frey. On the procedure:
as §2, §3
Mechanical allodynia was assessed by the manual von Frey test and measured prior to Paclitaxel injections (Day 0) and test article administration (Days 13 or 20) and at 0.5 hour after dosing of vehicle or test articles on Days 14 or 21. The animals were randomized to each groups based on pre-dose mechanical allodynia values (Days 13 or 20). The animals were given 20 to 30 minutes to acclimatize prior to testing. The paw was touched with a series of 8 manual von Frey monofilaments with logarithmically incremental stiffness [3.61 (0.4 g), 3.84 (0.6 g), 4.08 (1.0 g), 4.31 (2.0 g), 4.56 (4.0 g), 4.74 (6.0 g), 4.93 (8.0 g), and 5.18 (15.0 g)]. […] Mechanical threshold (50% g threshold) was assessed using the up- and down-method following the procedure described by Chaplan, et al., 1994, J Neurosci Methods 53:55-63.

Data set [5] relates to Sprague-Dawley rats. The data set can be described thus: STZ-induced mechanical allodynia model in diabetic rats. Type of data set: in vivo, rat. Particulars: i.p., von Frey. On the procedure: (§4) Male Sprague-Dawley rats weighing 225-250 grams were employed. Streptozotocin (STZ, 50 mg/kg) freshly dissolved in 0.9% sterile saline was injected intraperitoneally on day 0. Three days later, diabetes was confirmed by existence of blood glucose >350 mg/dL as measured by glucometer. Animal health was monitored biweekly for 14 days, at which point mechanical allodynia and thermal hyperalgesia were measured and confirmed. During the course of the study, the animals were housed individually under constant temperature, humidity and a 12-hour light-dark cycle. The animals were tested prior to study inclusion for mechanical allodynia and thermal hyperalgesia.
(§5) The behavioral assessments include mechanical allodynia and thermal hyperalgesia. Test articles, vehicle and gabapentin were administered intraperitoneally on Days 14 or 21.
Mechanical allodynia was assessed by the manual von Frey test and measured prior to STZ injections (Day 0). The animals were then randomized to each groups based on pre-dose mechanical allodynia values (Day 13 and Day 20). The mechanical allodynia test was performed again at 0.5 and 1.5 hours after vehicle, test article or gabapentin administration on Day 14. […] Mechanical threshold (50% g threshold) was assessed using the up- and down-method following the procedure described by Chaplan, et al., 1994, J Neurosci Methods 53:55-63).

For data set [6], the system named is Sprague-Dawley rats. The data set can be described thus: STZ-induced thermal hyperalgesia model in diabetic rats. Format: in vivo, rat. The settings on record: i.p. On the procedure:
as §4, §5
Thermal hyperalgesia: The animals were tested prior to study inclusion for thermal hyperalgesia on day 13 and Day 20. Thermal hyperalgesia was measured at 1 and 2 hours after dosing of vehicle or test article on Day 14 and Day 21 by using the IITC Model-336G (IITC INC. USA) apparatus. Each rat was placed within a plastic box atop a glass floor for 20 to 30 minutes. A light beam under the floor was aimed at the plantar surface of the left hind paw. The time was measured automatically when the paw was withdrawn away from the thermal stimulus. […]

The subject of a further data set is CD-1 mice. The data set can be described thus: Mouse tail flick test, potentiation of morphine analgesia. The settings on record: mouse model of acute pain, n=8, i.p.; morphine SC. Format: in vivo.
The next data set concerns the target T2, human S1R (Homo sapiens, UniProt Q99720).
T2 construct: experimentally determined in human jurkat cell membranes using 15.0 nM; endogenous in cells; host or cells: human Jurkat cell membranes
The data set can be described thus: Human S1R radiolabeled binding assay, human jurkat cell membranes, [3H]-pentazocine. The settings on record: human membranes (Compounds 10-76). On the procedure: The binding process was terminated by addition of cold buffer. Then, the mixture was filtered and washed with cold buffer. Radioactivity was identified using the TopCount NTX liquid scintillation counter (PerkinElmer, Waltham, Mass.).
as §1

A further data set addresses T3, human S2R (Homo sapiens, UniProt Q5BJF2).
T3 construct: performed using Jurkat cell line Clone E6-1 cells with 0.025 μM; endogenous in cells; host or cells: Jurkat Clone E6-1 cell membranes
The data set can be described thus: Human S2R radiolabeled binding assay, Jurkat Clone E6-1 cell membranes, [3H] DTG. The settings on record: human membranes (Compounds 10-76). The protocol: The radiolabeled binding assay of the human S1R and S2R were performed using human jurkat cell membranes according to the protocol previously reported (Ganapathy, et al., 1999, J. Pharmacol. Exp. Ther. 289:251-60).
DTG as radioligand. […] The cells were incubated in RPMI 1640 Medium with 10% FBS, 100 U/ml penicillin and […] streptomycin. After incubation, the cells were suspended in 5 mM potassium phosphate buffer (pH=7.6). The membrane protein concentration was controlled at 5 mg/mL. The collected membrane protein was incubated with ligands in potassium phosphate buffer for 1 hour at room temperature and terminated by adding ice-cold buffer. Then the mixture is filtered with 0.7 μm syringe filter and washed three times. The radioactivity is determined by liquid scintillation spectrometry.
Radiolabeled binding assays were conducted using two different species. Compounds 1-9 were assayed using guinea pig brain membranes for the binding assays. Compounds 10-76 were assayed using human brain membranes for the binding assays.

In data set [7] the test system is Sprague Dawley rats. The data set can be described thus: Spinal nerve ligation (SNL) Chung model in rats, mechanical allodynia. Format: in vivo, rat. The settings on record: two doses, von Frey. On the procedure:
(§6) Groups of 6 male Sprague Dawley rats weighing 160-200 grams were used. Prior to surgery and post-operatively, the animals were housed socially under constant temperature, humidity, and a 12-hour light-dark cycle. Following acclimation to the animal colony for 7 days, the rats were tested for mechanical allodynia and thermal hyperalgesia for baseline (pre-dose) values on Day −1. On Day 0, the animals were anesthetized with pentobarbital (50 mg/kg, i.p.). The left paraspinal muscles were separated from the spinous processes (L4-S2) and the L6-S1 facet joint was nipped. The transverse process of L6 was removed to allow for identifying the location of the L5 and L6 spinal nerves. The left L5-L6 spinal nerves were isolated and tightly ligated with 6.0 silk sutures. The rats are allowed to recover for 13 days.
Rats were tested for mechanical allodynia and thermal hyperalgesia following acclimation on Day −1 for baseline (pre-dose) values. Following the recovery period, the rats were tested to verify the mechanical allodynia on Day 13. […]
Mechanical allodynia: The mechanical allodynia is assessed by the manual von Frey test (Chaplan up/down method using von Frey filaments on the plantar surface of the CFA injected paw). […] Mechanical threshold (50% g threshold) is assessed using the up- and down-method following the procedure described by Chaplan (Chaplan et al., 1994, J Neurosci Methods 53:55-63).

The test system of data set [8] is Sprague Dawley rats. The data set can be described thus: Spinal nerve ligation (SNL) Chung model in rats, thermal hyperalgesia. Type of data set: in vivo, rat. The settings on record: two doses, Hargreaves method. On the procedure: as §6
Following a four (4) day wash out “period”, the rats were tested in the thermal hyperalgesia test and randomized to balance treatment groups. On Day 19, the rats were administered vehicle, Compound 68 at two doses, or gabapentin 50 mg/kg, IP. At 15 and 75 minutes post-dose the thermal hyperalgesia is tested again.
Thermal hyperalgesia: Thermal hyperalgesia is measured by the Hargreaves method. […] The time is measured automatically when the paw is withdrawn away from the thermal stimulus. […]

T3 sequence (Q5BJF2 whole entry): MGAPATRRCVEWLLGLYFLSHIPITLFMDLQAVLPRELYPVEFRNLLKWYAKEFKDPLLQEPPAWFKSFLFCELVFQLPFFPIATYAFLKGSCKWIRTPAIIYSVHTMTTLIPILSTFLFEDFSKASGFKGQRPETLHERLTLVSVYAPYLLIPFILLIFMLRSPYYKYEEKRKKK
T1 sequence (Q60492 whole entry): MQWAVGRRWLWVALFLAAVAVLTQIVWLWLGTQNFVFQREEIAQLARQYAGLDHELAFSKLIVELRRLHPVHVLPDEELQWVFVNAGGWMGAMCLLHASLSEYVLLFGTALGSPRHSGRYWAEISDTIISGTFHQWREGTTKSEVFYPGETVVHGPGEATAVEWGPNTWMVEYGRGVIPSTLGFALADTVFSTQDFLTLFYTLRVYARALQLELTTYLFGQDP
T2 sequence (Q99720 whole entry): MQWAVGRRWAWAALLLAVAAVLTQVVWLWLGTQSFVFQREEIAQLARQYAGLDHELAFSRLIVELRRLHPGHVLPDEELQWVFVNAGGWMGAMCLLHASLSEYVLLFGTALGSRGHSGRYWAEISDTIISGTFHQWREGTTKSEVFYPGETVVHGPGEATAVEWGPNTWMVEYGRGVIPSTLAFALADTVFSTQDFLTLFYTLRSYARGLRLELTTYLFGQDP
Method for CD-1 mice: Male young CD-1 mice (at the age of 7-8 weeks) were used for this study. Tail flick latency was determined using a lamp device (design derived from D'Amour & Smith, 1941, J. Pharmacol. Exp. Ther. 72(1):74-79). The behavioral endpoint was defined as a flick of the tail out of the path of the light. The intensity of the light was adjusted to provide a baseline response time of approximately 2-4 seconds. The light beam was focused approximately 4 cm from the tip of the tail. A cut off time of 20 seconds was used to prevent tissue damage. Mice received a single intra-peritoneal (IP) injection of either vehicle (saline) or test substance at appropriate doses followed immediately by a single sub-cutaneous (SC) administration of saline or Morphine at the appropriate dose for each group. Thirty minutes after the SC administration, the animals were gently restrained in a manner which allowed access to the tail and positioned beneath a light beam (D'Amour & Smith, 1941, J Pharmacol Exp Ther 72(1):74-79) with the tail aligned for measurement at approximately 4 cm from tail tip. The lamp device automatically timed each tail flick response once the tail was flicked away from the light beam by a sensor beneath the platform.

With `Cn1nc(CN2CCCC2)nc1-c1ccc(C(C)(C)C)cc1` [Compound 8, 5-(4-(tert-butyl)phenyl)-1-methyl-3-(pyrrolidin-1-ylmethyl)-1H-1,2,4-triazole], the Ki (as a rule, a measure of affinity in units of concentration, obtained from inhibition or displacement) at S1R is 2.28 nM. The “motor incoordination effect in rat rotarod test” value was “No motor incoordination effect” with Sprague-Dawley rats [1] (20 mg/kg); “very slight and temporary motor incoordination effect” in the data set on Sprague-Dawley rats [1] (40 mg/kg, t=60 min). Further, the “analgesic activity in rat formalin test” value in the data set on Sprague-Dawley rats [2] is listed as “dose-dependent analgesic activity”. The “analgesic activity, Paclitaxel-induced cold hyperalgesia” value in the data set with Sprague-Dawley rats [3] is “exhibits analgesic activity”. Besides, the “analgesic activity, Paclitaxel-induced mechanical allodynia” value in the data set on Sprague-Dawley rats [4] was “exhibits analgesic activity”. In addition, the “analgesic activity, STZ-induced mechanical allodynia” value with Sprague-Dawley rats [5] is listed as “exhibits analgesic activity”. Moreover, the “analgesic activity, STZ-induced thermal hyperalgesia” value in the data set with Sprague-Dawley rats [6] was “exhibits analgesic activity”. The “potentiation of morphine's analgesia, Tail Flick Test” value with CD-1 mice was “potentiates morphine's analgesia”.
As to `CC(C)n1nc(CN2CCC3(CC3)C2)nc1-c1ccc(C(C)(C)C)cc1` [Compound 68, 5-((5-(4-(tert-butyl)phenyl)-1-isopropyl-1H-1,2,4-triazol-3-yl)methyl)-5-azaspiro[2.4]heptane], the inhibition constant (Ki) on human S1R turned out to be 0.75 nM; at human S2R it was 360 nM. In addition, the “analgesic activity, mechanical allodynia in SNL Chung model” value in the data set on Sprague Dawley rats [7] is given as “exhibits analgesic activity”. Also, the “analgesic activity, thermal hyperalgesia in SNL Chung model” value with Sprague Dawley rats [8] is “exhibits analgesic activity”.
